Results from US20250179066A1, “ZWITTERIONIC ANTIBACTERIAL COMPOUNDS” (Hoffmann-La Roche Inc., priority 2022, published 2025).
Where a name gives a salt, the structure may show the parent alone.

These compounds were tested on Acinetobacter baumannii ATCC17961 (assay: Antimicrobial susceptibility testing: 90% growth inhibitory concentration (IC90) determination). Details: 90% growth inhibitory concentration against Acinetobacter baumannii ATCC17961, Iso-Sensitest broth, OD 600 nm over 16 h; read-out: ATCC 17961 IC90.
Format: cell-based
Outline: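 OD600 monitored each minute over 16 h at 35±2° C for bacteria (~5×10^5 CFU/mL final) in Iso-Sensitest medium with 10-point twofold compound series (e.g. 10-0.0195 μM final). Concentration giving 90% growth inhibition in log phase reported as IC90.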

For `Cn1c(-c2cn(-c3cc4ccccc4s3)nc2C(F)(F)F)cnc1C(=O)Nc1ccc(C(=O)N2CCN(C(=O)C3CC[N+](CC(=O)O)(CC4CNC4)CC3)CC2)c(Cl)c1` (centres unmarked) [Example 95, 2-[1-(Azetidin-3-ylmethyl)-4-[4-[4-[[5-[1-(benzothiophen-2-yl)-3-(trifluoromethyl)pyrazol-4-yl]-1-methyl-imidazole-2-carbonyl]amino]-2-chloro-benzoyl]piperazine-1-carbonyl]piperidin-1-ium-1-yl]Acetic Acid; Formic Acid; Formate], the IC90 was 1760 nM.

Same assay, conditions: Acinetobacter baumannii, ATCC17961, 16 h, 90% growth inhibitory concentration against Acinetobacter baumannii ATCC17961, Iso-Sensitest broth, OD 600 nm over 16 h; read-out: ATCC 17961 IC90

`Cn1c(-c2cn(-c3ccc(N)cn3)nc2C(F)(F)F)cnc1C(=O)Nc1ccc(C(=O)N2CCN(C(=O)[C@@H](N)CCCCNCC(=O)O)CC2)c(Cl)c1` [Example 81, 2-[[(5S)-amino-6-[4-[4-[[5-[1-(5-amino-2-pyridyl)-3-(trifluoromethyl)pyrazol-4-yl]-1-methyl-imidazole-2-carbonyl]amino]-2-chloro-benzoyl]piperazino]-6-keto-hexyl]amino]acetic acid. 1:1 2,2,2-trifluoroacetic acid] and `Cn1c(-c2cn(-c3ccc(N)cn3)nc2C(F)(F)F)cnc1C(=O)Nc1ccc(C(=O)N2CCN(C(=O)[C@H](N)CC(=O)O)CC2)c(Cl)c1` [Example 85, (3R)-3-amino-4-[4-[4-[[5-[1-(5-amino-2-pyridyl)-3-(trifluoromethyl)pyrazol-4-yl]-1-methyl-imidazole-2-carbonyl]amino]-2-chloro-benzoyl]piperazino]-4-keto-butyric acid. 1:1 2,2,2-trifluoroacetic acid] are within 1.5-fold of each other in IC90: 1210 nM for the first, 1360 nM for the second.

`COc1ccc(-n2cc(-c3cnc(C(=O)Nc4ccc(C(=O)N5CCN(C(=O)C6CC[N+](CC(=O)O)(CC7CNC7)CC6)CC5)c(Cl)c4)n3C)c(C(F)(F)F)n2)cn1` (centres unmarked) [Example 82, 2-[1-(azetidin-3-ylmethyl)-4-[4-[2-chloro-4-[[5-[1-(6-methoxy-3-pyridyl)-3-(trifluoromethyl)pyrazol-4-yl]-1-methyl-imidazole-2-carbonyl]amino]benzoyl]piperazine-1-carbonyl]piperidin-1-ium-1-yl]acetic acid. 1:1 2,2,2-trifluoroacetate] and `CNc1cc(-n2cc(-c3cnc(C(=O)Nc4ccc(C(=O)N5CCN(C(=O)C6CC[N+](CC(=O)O)(CC7CNC7)CC6)CC5)c(Cl)c4)n3C)c(C(F)(F)F)n2)ccn1` (centres unmarked) [Example 88, 2-[1-(azetidin-3-ylmethyl)-4-[4-[2-chloro-4-[[1-methyl-5-[1-[2-(methylamino)-4-pyridyl]-3-(trifluoromethyl)pyrazol-4-yl]imidazole-2-carbonyl]amino]benzoyl]piperazine-1-carbonyl]piperidin-1-ium-1-yl]acetic acid. 1:1 2,2,2-trifluoroacetate] are within 1.5-fold of each other in IC90: 1220 nM for the first, 1410 nM for the second.

`Cn1c(-c2cn(-c3ccc(N)cn3)nc2C(F)(F)F)cnc1C(=O)Nc1ccc(C(=O)N2CCN(C(=O)C[C@H](N)C(=O)O)CC2)c(Cl)c1` [Example 83, (2S)-2-amino-4-[4-[4-[[5-[1-(5-amino-2-pyridyl)-3-(trifluoromethyl)pyrazol-4-yl]-1-methyl-imidazole-2-carbonyl]amino]-2-chloro-benzoyl]piperazino]-4-keto-butyric acid. 1:1 2,2,2-trifluoroacetic acid] and `Cn1c(-c2cn(-c3ccc(N)cn3)nc2C(F)(F)F)cnc1C(=O)Nc1ccc(C(=O)N2CCN(C(=O)CC[C@H](N)C(=O)O)CC2)c(Cl)c1` [Example 90, (2S)-2-amino-5-[4-[4-[[5-[1-(5-amino-2-pyridyl)-3-(trifluoromethyl)pyrazol-4-yl]-1-methyl-imidazole-2-carbonyl]amino]-2-chloro-benzoyl]piperazino]-5-keto-valeric acid. 1:1 2,2,2-trifluoroacetic acid] are within 1.5-fold of each other in IC90: 1240 nM for the first, 1520 nM for the second.

`CN(C)Cc1ccc(-n2cc(-c3cnc(C(=O)Nc4ccc(C(=O)N5CCN(C(=O)C6CC[N+](CC(=O)O)(CC7CNC7)CC6)CC5)c(Cl)c4)n3C)c(C(F)(F)F)n2)nc1` (centres unmarked) [Example 84, 2-[1-(azetidin-3-ylmethyl)-4-[4-[2-chloro-4-[[5-[1-[5-[(dimethylamino)methyl]-2-pyridyl]-3-(trifluoromethyl)pyrazol-4-yl]-1-methyl-imidazole-2-carbonyl]amino]benzoyl]piperazine-1-carbonyl]piperidin-1-ium-1-yl]acetic acid. 1:1 formic acid. 1:1 formate] and `Cn1c(-c2cn(-c3ccc(N)cn3)nc2C(F)(F)F)cnc1C(=O)Nc1ccc(C(=O)N2CCC(C(=O)N3CC[N+](CC(=O)O)(CC4CNC4)CC3)CC2)c(Cl)c1` [Example 87, 2-[4-[1-[4-[[5-[1-(5-amino-2-pyridyl)-3-(trifluoromethyl)pyrazol-4-yl]-1-methyl-imidazole-2-carbonyl]amino]-2-chloro-benzoyl]piperidine-4-carbonyl]-1-(azetidin-3-ylmethyl)piperazin-1-ium-1-yl]acetic acid. 1:1 2,2,2-trifluoroacetate] are within 1.5-fold of each other in IC90: 1280 nM for the first, 1410 nM for the second.

`Cn1c(-c2cn(-c3ccc(N)cn3)nc2C(F)(F)F)cnc1C(=O)Nc1ccc(C(=O)N2CCN(C(=O)C3CC[N+](CC(=O)O)(CC4CNC4)CC3)C3(CC3)C2)c(Cl)c1` (centres unmarked) [Example 86, 2-[4-[7-[4-[[5-[1-(5-amino-2-pyridyl)-3-(trifluoromethyl)pyrazol-4-yl]-1-methyl-imidazole-2-carbonyl]amino]-2-chloro-benzoyl]-4,7-diazaspiro[2.5]octane-4-carbonyl]-1-(azetidin-3-ylmethyl)piperidin-1-ium-1-yl]acetic acid. 1:1 formate] and `Cn1c(-c2cn(-c3ccc(N)cn3)nc2C(F)(F)F)cnc1C(=O)Nc1ccc(C(=O)N2CCN(C(=O)C3CC[N+](CC(=O)O)(CC4CNC4)CC3)CC23CC3)c(Cl)c1` (centres unmarked) [Example 93, 2-[4-[4-[4-[[5-[1-(5-amino-2-pyridyl)-3-(trifluoromethyl)pyrazol-4-yl]-1-methyl-imidazole-2-carbonyl]amino]-2-chloro-benzoyl]-4,7-diazaspiro[2.5]octane-7-carbonyl]-1-(azetidin-3-ylmethyl)piperidin-1-ium-1-yl]acetic acid. 1:1 formate] are within 1.5-fold of each other in IC90: 1370 nM for the first, 1660 nM for the second.

`Cn1c(-c2cn(-c3ccc(N)cn3)nc2C(F)(F)F)cnc1C(=O)Nc1ccc(C(=O)N2C3CCC2CN(C(=O)C2CC[N+](CC(=O)O)(CC4CNC4)CC2)C3)c(Cl)c1` (centres unmarked) [Example 89, 2-[4-[8-[4-[[5-[1-(5-amino-2-pyridyl)-3-(trifluoromethyl)pyrazol-4-yl]-1-methyl-imidazole-2-carbonyl]amino]-2-chloro-benzoyl]-3,8-diazabicyclo[3.2.1]octane-3-carbonyl]-1-(azetidin-3-ylmethyl)piperidin-1-ium-1-yl]acetic acid. 1:1 formate] and `Cn1c(-c2cn(-c3ccc(N)cn3)nc2C(F)(F)F)cnc1C(=O)Nc1ccc(C(=O)N2CC3CC4(C(=O)C5CC[N+](CC(=O)O)(CC6CNC6)CC5)CC(C2)N34)c(Cl)c1` (centres unmarked) [Example 92, 2-[4-[3-[4-[[5-[1-(5-amino-2-pyridyl)-3-(trifluoromethyl)pyrazol-4-yl]-1-methyl-imidazole-2-carbonyl]amino]-2-chloro-benzoyl]-3,9-diazabicyclo[3.3.1]nonane-9-carbonyl]-1-(azetidin-3-ylmethyl)piperidin-1-ium-1-yl]acetic acid. 1:1 formate] are within 1.5-fold of each other in IC90: 1490 nM for the first, 1620 nM for the second.

`Cn1c(-c2cn(-c3ccc(N)cn3)nc2C(F)(F)F)cnc1C(=O)Nc1ccc(C(=O)N2CCN(C(=O)[C@@H](N)CC(=O)O)CC2)c(Cl)c1` [Example 91, (3S)-3-amino-4-[4-[4-[[5-[1-(5-amino-2-pyridyl)-3-(trifluoromethyl)pyrazol-4-yl]-1-methyl-imidazole-2-carbonyl]amino]-2-chloro-benzoyl]piperazino]-4-keto-butyric acid. 1:1 2,2,2-trifluoroacetic acid] and `Cn1c(-c2cn(-c3ccc(N)cn3)nc2C(F)(F)F)cnc1C(=O)Nc1ccc(C(=O)N2CCC(C(=O)NCCCc3cc[n+](CC(=O)O)c(CCCN)c3)CC2)c(Cl)c1` [Example 96, 2-[2-(3-aminopropyl)-4-[3-[[1-[4-[[5-[1-(5-amino-2-pyridyl)-3-(trifluoromethyl)pyrazol-4-yl]-1-methyl-imidazole-2-carbonyl]amino]-2-chloro-benzoyl]piperidine-4-carbonyl]amino]propyl]pyridin-1-ium-1-yl]acetic acid. 1:1 2,2,2-trifluoroacetic acid. 1:1 2,2,2-trifluoroacetate] are within 1.5-fold of each other in IC90: 1530 nM for the first, 1820 nM for the second.

`Cn1c(-c2cn(-c3sncc3N)nc2C(F)(F)F)cnc1C(=O)Nc1ccc(C(=O)N2CCN(C(=O)C3CC[N+](CC(=O)O)(CC4CNC4)CC3)CC2)c(Cl)c1` (centres unmarked) [Example 94, 2-[4-[4-[4-[[5-[1-(4-Aminoisothiazol-5-yl)-3-(trifluoromethyl)pyrazol-4-yl]-1-methyl-imidazole-2-carbonyl]amino]-2-chloro-benzoyl]piperazine-1-carbonyl]-1-(azetidin-3-ylmethyl)piperidin-1-ium-1-yl]acetic Acid.1:1 formate] and `COCC1CN(C(=O)c2ccc(NC(=O)c3ncc(-c4cn(-c5ccc(N)cn5)nc4C(F)(F)F)n3C)cc2Cl)CCN1C(=O)C1CC[N+](CC(=O)O)(CC2CNC2)CC1` (centres unmarked) [Example 97, 2-[4-[4-[4-[[5-[1-(5-amino-2-pyridyl)-3-(trifluoromethyl)pyrazol-4-yl]-1-methyl-imidazole-2-carbonyl]amino]-2-chloro-benzoyl]-2-(methoxymethyl)piperazine-1-carbonyl]-1-(azetidin-3-ylmethyl)piperidin-1-ium-1-yl]acetic acid. 1:1 formate] are within 1.5-fold of each other in IC90: 1730 nM for the first, 1840 nM for the second.
